From patent US10888549B2, “Pharmaceutical agents targeting cancer stem cells” (THE JOHNS HOPKINS UNIVERSITY, priority 2016, dated 2021)

Tests used:
Type in all cases: cell-based, human
SOX2 = SOX2 expression by western blotting / flow cytometry
Description: (§1) Whole cell lysates were extracted using RIPA buffer (Thermo Scientific) supplemented with 10 μL/mL Halt™ Protease Inhibitor Cocktail Kit (Life Technologies) and 30 μL/mL Halt™ Phosphatase Inhibitor Cocktail Kit (Life Technologies). The protein concentrations were determined using a Pierce™ BCA Protein Assay Kit (Life Technologies), and the protein were separated on NuPAGE® 4-12% Bis-Tris Gel (Life Technologies) according to the manufacturer's protocol. COX2 (D5H5), NANOG (D73G4), OCT4 (D7O5Z), CD133 (A3G6K), Snail (C15D3), ZEB1 (D80D3), Vimentin (D21H3), CDH2 (D4R1H), CDH1 (24E10), p-EGFR (D7A5), EGFR (D38B1), p-AKT (D9E), AKT (cat #, 9272), p-ERK (D13.14.4E), ERK (137F5), p-YAP1 (D9W2I), p-Src (cat #, 2101), Src (36D10), DNMT1 (D63A6), DNMT3A (D23G1), and DNMT3B (D7O7O) antibodies were obtained from Cell Signaling Technology (Danvers, Mass., USA), except for SOX2 (EPR3131; Abcam, Cambridge, USA), YAP1 (ab52771; Abcam), CD24 (cat #, AF5247-SP; R&D Systems, Minneapolis USA) and β-actin (A2228; Sigma-Aldrich). Secondary horseradish peroxidase (HRP)-conjugated antibodies were obtained from Cell Signaling Technology, and chemiluminescent detection of HRP-labeled antibodies was performed using Amersham ECL Prime Western Blotting Detection Reagent (GE Healthcare, Piscataway, USA). As loading control, β-actin was used.
For extracellular staining, cells (1×10^6/100 μL stain buffer) were incubated with PE-Vio770-conjugated anti-human CD133 (293C3; Miltenyi Biotec, Auburn, USA) or PE-conjugated anti-human CD24 antibody (cat #, 560991; BD Biosciences) for 30 min at 4° C. in dark. PE-Vio770-conjugated Isotype (cat #, 130-098-563; Miltenyi Biotec) and PE-conjugated IgG2a, κ Isotype (cat #, 555574; BD Biosciences) were used as control for CD133 and CD24 staining, respectively. Staining for intracellular SOX2 was carried out using the BD Cytofix/Cytoperm Fixation/Permeabilization Kit (BD Biosciences) according to manufacturer's protocol. The cells were incubated with Alexa Fluor 647-conjugated anti-SOX2 antibody (cat #, 560302; BD Biosciences) for 40 min at 4° C. in dark. Alexa Fluor 647-conjugated anti-IgG2a, κ Isotype (cat #, 558053; BD Biosciences) was used as control. Data were acquired on a BD FACSCalibur flow cytometer (BD Biosciences) using BD CellQuest Pro software (BD Biosciences) and analyzed with FlowJo software v10.1 (Tree Star, Ashland, USA).

YAP1 = YAP1 expression by western blotting
Description: as §1

let-7 = let-7 expression by Q-RT-PCR; conditions: parental or spheroid bladder cancer cells
Description: Total RNA from cell lines was isolated using the RNeasy Plus Mini kit (Qiagen, Valencia, USA) according to the manufacturer's protocol. Total RNA extraction from bladder tissue was performed with the QIAzol Lysis Reagent (Qiagen) followed by phenol extraction and ethanol precipitation. Total RNA was eluted in DEPC treated water and stored at -80° C. Total RNA extraction from urine was performed using the […] Isolation Kit (Ambion, Austin, USA). These total RNA were converted to cDNA using the SuperScript III First-Strand Synthesis System (Life technologies, Carlsbad, USA), which was then used as a template for Q-RT-PCR. Q-RT-PCR was performed using the Fast SYBR Green Master Mix (Thermo Fisher Scientific, Waltham, USA) on a 7900HT Fast Real-Time PCR System (Life technologies) in triplicate. Micro RNA (miRNA) extraction was performed using the […] Isolation Kit, and was reverse transcribed using TaqMan reverse transcription kit (Applied Biosystems, Foster City, USA) and miRNA-specific RT primers provided with TaqMan microRNA assays (Applied Biosystems). Q-RT-PCR for miRNAs was performed using the TaqMan Universal PCR Master Mix according to the manufacturer's protocol. SDS software (Applied Biosystems) was used to determine cycle threshold (Ct) values. Expression level was quantified relative to β-actin for mRNA and RNU6B for miRNA using the 2-ΔΔCt method (12).

panel of miRNAs = assay: Expression of a panel of miRNAs in BFTC 905 cells
Description: Total RNA from cell lines was isolated using the RNeasy Plus Mini kit (Qiagen, Valencia, USA) according to the manufacturer's protocol. Total RNA extraction from bladder tissue was performed with the QIAzol Lysis Reagent (Qiagen) followed by phenol extraction and ethanol precipitation. Total RNA was eluted in DEPC treated water and stored at −80° C. Total RNA extraction from urine was performed using the MirVana miRNA Isolation Kit (Ambion, Austin, USA). These total RNA were converted to cDNA using the SuperScript III First-Strand Synthesis System (Life technologies, Carlsbad, USA), which was then used as a template for Q-RT-PCR. Q-RT-PCR was performed using the Fast SYBR Green Master Mix (Thermo Fisher Scientific, Waltham, USA) on a 7900HT Fast Real-Time PCR System (Life technologies) in triplicate. Micro RNA (miRNA) extraction was performed using the MirVana miRNA Isolation Kit, and was reverse transcribed using TaqMan reverse transcription kit (Applied Biosystems, Foster City, USA) and miRNA-specific RT primers provided with TaqMan microRNA assays (Applied Biosystems). Q-RT-PCR for miRNAs was performed using the TaqMan Universal PCR Master Mix according to the manufacturer's protocol. SDS software (Applied Biosystems) was used to determine cycle threshold (Ct) values. Expression level was quantified relative to β-actin for mRNA and RNU6B for miRNA using the 2-ΔΔCt method (12).

[1] = system: promoters of miR-126, miR-296, and miR-200c; assay: Bisulfite sequencing of miRNA promoters; conditions: spheroid cells
Description: Cell pellets were digested with 1% sodium dodecyl sulfate and 50 μg/mL proteinase K (Roche, Nutley, USA) at 48° C. overnight. Isolation of genomic DNA from cell lines was performed with the phenol-chloroform extraction protocol followed by ethanol precipitation. Bisulfite treatment was conducted using an EpiTect Bisulfite Kit (QIAGEN, Valencia, USA), and was subsequently amplified via PCR using primers as shown in the following table. PCR products were purified using the QIAquick Gel Extraction kit (Qiagen), and sequenced by Genewiz DNA sequencing service (Genewiz, South Plainfield, USA). The data were analyzed using the Sequence Scanner v1.0 software (Life technologies). A methylation frequency of ≥50% of total CpG sites within the amplified region was considered “methylation-positive”.

[2] = COX2 inhibitor added to erlotinib, basal-type cells
[3] = agent alone, bladder cancer cells

For `Cc1ccc(-c2cc(C(F)(F)F)nn2-c2ccc(S(N)(=O)=O)cc2)cc1` [celecoxib, Celecoxib], the SOX2 expression (SOX2; [2]) was “impaired”, the SOX2 expression (SOX2; [3]) was “repressed” and the YAP1 expression (YAP1; [2]) was “no longer able to induce”. For the same compound, the YAP1 expression (YAP1; [3]) was “induced”, the let-7 expression (let-7) was “restoration” and the “expression of several miRNAs” value (panel of miRNAs) was “induced”. The “promoter methylation of miRNAs (miR-126, miR-296, miR-200c)” value [1] was “demethylated”.
